In ChEMBL document CHEMBL1135190, “A comparison of the binding of three series of nicotinic ligands” (Bioorg Med Chem Lett, 2002):

Each molecule was assayed against Neuronal acetylcholine receptor (assay: Binding affinity towards nicotinic acetylcholine receptor using [3H]nicotine as radioligand in rat brain homogenates).
Type: tissue-based

`CCN(C)Cc1ccc(Br)nc1` and `CCN(C)Cc1ccc(C)nc1` are within 1.5-fold of each other in Ki: 0.062 µM for the first, 0.066 µM for the second.

First: CCN(C)CCOc1cccnc1
Second: CCN(C)CCOc1cncc(Br)c1
The Ki of the first is 20-fold lower: 0.022 µM for the first, 0.447 µM for the second. The first binds more tightly here.

`CN1CCCC1c1ccc(Br)nc1` (stereo unspecified) and `CN1CCCC1c1cncc(Cl)c1` (stereo unspecified) are within 1.5-fold of each other in Ki: 0.00045 µM for the first, 0.00063 µM for the second.

Going from `CCN(C)Cc1cnc2cc3ccncc3cc2c1` to `CN1CCCC1c1cnc2cc3ccncc3cc2c1` (stereo unspecified), the Ki falls from 1.11 µM to 0.0112 µM (99-fold). The second binds more tightly here.

First: CCN(C)Cc1cnccc1F
Second: CCN(C)Cc1cnccc1Cl
The Ki of the first is 2.3-fold higher: 0.093 µM for the first, 0.041 µM for the second. The second binds more tightly here.

First: CCN(C)CCOc1ccc(OC)nc1
Second: CCN(C)CCOc1ccc(Br)nc1
The Ki of the first is 14-fold higher: 4.07 µM for the first, 0.29 µM for the second. The second binds more tightly here.

Going from `c1ccc2ncc(C3CCCN3)cc2c1` (stereo unspecified) to `CN1CCCC1c1cncc(F)c1` (stereo unspecified), the Ki falls from 0.093 µM to 0.00103 µM (90-fold). The second binds more tightly here.

Going from `CCN(C)Cc1cncc(OC)c1` to `CCN(C)CCOc1cncc(OC)c1`, the Ki falls from 0.115 µM to 0.016 µM (7.2-fold). The second binds more tightly here.
